The numbers were not newly measured in patent publication US20060167069A1, “Pharmaceutical composition of metaxalone with enhanced oral bioavailability” (Sun Pharmaceutical Industries Ltd., priority 2002, published 2006), which cites them from elsewhere.

The conditions of this series: prior art statement.

Regarding `Cc1cc(C)cc(OCC2CNC(=O)O2)c1` (stereo not shown) [Metaxalone, 5-(3,5-dimethylphenoxymethyl)-2-oxazolidinone], the aqueous solubility result is listed as “low aqueous solubility”.
